Source: article PMC6348381, “Discovery of an MLLT1/3 YEATS Domain Chemical Probe” (Angewandte Chemie (International Ed. in English), 2018)

Legend:
Format in all cases: binding
[1] = target: T1, ATAD2A (Homo sapiens, UniProt Q6PL18); experiment: Thermal shift assay, ATAD2A
T1 construct: purchased in-house (SGC bromodomain thermal shift / AlphaScreen panel)
T1 sequence (Q6PL18 1-1390): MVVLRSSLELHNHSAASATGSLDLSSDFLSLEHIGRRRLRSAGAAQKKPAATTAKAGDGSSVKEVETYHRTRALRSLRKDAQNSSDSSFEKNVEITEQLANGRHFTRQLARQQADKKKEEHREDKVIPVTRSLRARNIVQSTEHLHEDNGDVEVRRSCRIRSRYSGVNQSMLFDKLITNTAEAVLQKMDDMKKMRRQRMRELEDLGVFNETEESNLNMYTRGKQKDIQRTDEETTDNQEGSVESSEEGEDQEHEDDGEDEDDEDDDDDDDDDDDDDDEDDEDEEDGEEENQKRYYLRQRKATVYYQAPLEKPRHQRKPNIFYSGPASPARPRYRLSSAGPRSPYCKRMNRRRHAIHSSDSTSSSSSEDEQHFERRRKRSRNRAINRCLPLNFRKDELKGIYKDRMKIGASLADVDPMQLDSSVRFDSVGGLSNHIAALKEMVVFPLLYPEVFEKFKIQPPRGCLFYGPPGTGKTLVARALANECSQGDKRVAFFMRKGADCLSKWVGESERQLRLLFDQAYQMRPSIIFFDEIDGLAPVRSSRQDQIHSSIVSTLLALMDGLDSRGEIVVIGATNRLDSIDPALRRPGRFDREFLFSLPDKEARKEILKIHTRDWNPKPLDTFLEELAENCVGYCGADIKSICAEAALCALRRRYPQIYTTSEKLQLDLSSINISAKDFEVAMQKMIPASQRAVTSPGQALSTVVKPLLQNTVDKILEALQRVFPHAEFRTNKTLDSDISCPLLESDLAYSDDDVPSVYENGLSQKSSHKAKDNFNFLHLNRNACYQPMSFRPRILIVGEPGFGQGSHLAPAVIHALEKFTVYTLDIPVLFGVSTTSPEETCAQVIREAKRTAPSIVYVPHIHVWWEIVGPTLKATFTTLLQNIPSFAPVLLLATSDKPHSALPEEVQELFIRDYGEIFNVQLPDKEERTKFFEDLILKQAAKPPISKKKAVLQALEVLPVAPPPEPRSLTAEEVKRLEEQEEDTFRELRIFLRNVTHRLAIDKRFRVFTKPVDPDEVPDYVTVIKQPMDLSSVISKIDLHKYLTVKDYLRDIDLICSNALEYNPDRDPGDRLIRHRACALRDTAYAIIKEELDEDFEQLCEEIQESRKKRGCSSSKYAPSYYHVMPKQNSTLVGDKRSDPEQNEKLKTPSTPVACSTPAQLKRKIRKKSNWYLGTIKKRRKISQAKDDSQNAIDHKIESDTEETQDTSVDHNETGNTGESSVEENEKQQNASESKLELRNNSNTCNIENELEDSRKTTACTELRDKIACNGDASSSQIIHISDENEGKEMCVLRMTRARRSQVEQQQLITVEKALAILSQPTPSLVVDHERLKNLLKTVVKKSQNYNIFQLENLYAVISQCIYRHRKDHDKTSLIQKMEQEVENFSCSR
Description: (§1) II.VII Thermal Shift Assay[6]
(§2) Thermal melting experiments were carried out using an Mx3005p Real Time PCR machine (Stratagene). Proteins were buffered in 10 mM HEPES pH 7.5, 500 mM NaCl and assayed in a 96-well plate at a final concentration of 2 μM in 20 μL volume. Compounds were added at a final concentration of 50 μM. SYPRO Orange (Molecular Probes) was added as a fluorescence probe at a dilution of 1:1000. Excitation and emission filters for the SYPRO-Orange dye were set to 465 nm and 590 nm, respectively. The temperature was raised with a step of 3 °C per minute from 25 °C to 96 °C and fluorescence readings were taken at each interval. The unfolding curves were fitted using the Boltzmann equation to determine the middle point of the transition.

[2] = target: T2, BAZ2A (Homo sapiens, UniProt Q9UIF9); experiment: Thermal shift assay, BAZ2A
T2 construct: purchased in-house (SGC bromodomain thermal shift / AlphaScreen panel)
Description: as §1, §2

[3] = target: T3, PB1(1) (Homo sapiens, UniProt Q86U86); experiment: Thermal shift assay, PB1(1)
T3 construct: PB1(1); purchased in-house (SGC bromodomain thermal shift / AlphaScreen panel)
Description: as §1, §2

[4] = target: T4, TIF1a (Homo sapiens, UniProt O15164); experiment: Thermal shift assay, TIF1a
T4 construct: Bromosporine with recombinant human bromodomain proteins; made in house
T4 sequence (O15164 899-1004 limits assumed): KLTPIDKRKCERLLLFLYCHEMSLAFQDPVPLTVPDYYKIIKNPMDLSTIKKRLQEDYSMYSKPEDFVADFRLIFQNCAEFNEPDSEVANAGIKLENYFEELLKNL
Description: as §1, §2

[5] = target: T5, YEATS4 (Homo sapiens, UniProt O95619); experiment: AlphaScreen selectivity screen, YEATS4
T5 construct: made in house; host or cells: E. coli Rosetta
Source text: (§3) IC50 (µM) IC50 (µM) IC50 (µM) IC50 (µM) (µM) (µM) (µM)
(§4) Supplementary Table 1. […]

[6] = target: BRD4(1) (Homo sapiens, UniProt O60885); experiment: AlphaScreen selectivity screen, BRD4 (1)
Source text: as §3, §4

[7] = target: TAF1 (Homo sapiens, UniProt P21675); experiment: AlphaScreen selectivity screen, TAF1
Chain of TAF1 (P21675 1522-1656): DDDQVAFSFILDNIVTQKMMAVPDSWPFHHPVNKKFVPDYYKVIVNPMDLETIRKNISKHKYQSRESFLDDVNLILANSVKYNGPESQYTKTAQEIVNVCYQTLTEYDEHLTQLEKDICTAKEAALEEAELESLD

T3 sequence (Q86U86 43-156 limits assumed): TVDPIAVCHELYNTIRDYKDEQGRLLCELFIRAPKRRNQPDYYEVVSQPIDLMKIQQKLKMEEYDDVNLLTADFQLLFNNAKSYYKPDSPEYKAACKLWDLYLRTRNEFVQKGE
T2 sequence (Q9UIF9 whole entry): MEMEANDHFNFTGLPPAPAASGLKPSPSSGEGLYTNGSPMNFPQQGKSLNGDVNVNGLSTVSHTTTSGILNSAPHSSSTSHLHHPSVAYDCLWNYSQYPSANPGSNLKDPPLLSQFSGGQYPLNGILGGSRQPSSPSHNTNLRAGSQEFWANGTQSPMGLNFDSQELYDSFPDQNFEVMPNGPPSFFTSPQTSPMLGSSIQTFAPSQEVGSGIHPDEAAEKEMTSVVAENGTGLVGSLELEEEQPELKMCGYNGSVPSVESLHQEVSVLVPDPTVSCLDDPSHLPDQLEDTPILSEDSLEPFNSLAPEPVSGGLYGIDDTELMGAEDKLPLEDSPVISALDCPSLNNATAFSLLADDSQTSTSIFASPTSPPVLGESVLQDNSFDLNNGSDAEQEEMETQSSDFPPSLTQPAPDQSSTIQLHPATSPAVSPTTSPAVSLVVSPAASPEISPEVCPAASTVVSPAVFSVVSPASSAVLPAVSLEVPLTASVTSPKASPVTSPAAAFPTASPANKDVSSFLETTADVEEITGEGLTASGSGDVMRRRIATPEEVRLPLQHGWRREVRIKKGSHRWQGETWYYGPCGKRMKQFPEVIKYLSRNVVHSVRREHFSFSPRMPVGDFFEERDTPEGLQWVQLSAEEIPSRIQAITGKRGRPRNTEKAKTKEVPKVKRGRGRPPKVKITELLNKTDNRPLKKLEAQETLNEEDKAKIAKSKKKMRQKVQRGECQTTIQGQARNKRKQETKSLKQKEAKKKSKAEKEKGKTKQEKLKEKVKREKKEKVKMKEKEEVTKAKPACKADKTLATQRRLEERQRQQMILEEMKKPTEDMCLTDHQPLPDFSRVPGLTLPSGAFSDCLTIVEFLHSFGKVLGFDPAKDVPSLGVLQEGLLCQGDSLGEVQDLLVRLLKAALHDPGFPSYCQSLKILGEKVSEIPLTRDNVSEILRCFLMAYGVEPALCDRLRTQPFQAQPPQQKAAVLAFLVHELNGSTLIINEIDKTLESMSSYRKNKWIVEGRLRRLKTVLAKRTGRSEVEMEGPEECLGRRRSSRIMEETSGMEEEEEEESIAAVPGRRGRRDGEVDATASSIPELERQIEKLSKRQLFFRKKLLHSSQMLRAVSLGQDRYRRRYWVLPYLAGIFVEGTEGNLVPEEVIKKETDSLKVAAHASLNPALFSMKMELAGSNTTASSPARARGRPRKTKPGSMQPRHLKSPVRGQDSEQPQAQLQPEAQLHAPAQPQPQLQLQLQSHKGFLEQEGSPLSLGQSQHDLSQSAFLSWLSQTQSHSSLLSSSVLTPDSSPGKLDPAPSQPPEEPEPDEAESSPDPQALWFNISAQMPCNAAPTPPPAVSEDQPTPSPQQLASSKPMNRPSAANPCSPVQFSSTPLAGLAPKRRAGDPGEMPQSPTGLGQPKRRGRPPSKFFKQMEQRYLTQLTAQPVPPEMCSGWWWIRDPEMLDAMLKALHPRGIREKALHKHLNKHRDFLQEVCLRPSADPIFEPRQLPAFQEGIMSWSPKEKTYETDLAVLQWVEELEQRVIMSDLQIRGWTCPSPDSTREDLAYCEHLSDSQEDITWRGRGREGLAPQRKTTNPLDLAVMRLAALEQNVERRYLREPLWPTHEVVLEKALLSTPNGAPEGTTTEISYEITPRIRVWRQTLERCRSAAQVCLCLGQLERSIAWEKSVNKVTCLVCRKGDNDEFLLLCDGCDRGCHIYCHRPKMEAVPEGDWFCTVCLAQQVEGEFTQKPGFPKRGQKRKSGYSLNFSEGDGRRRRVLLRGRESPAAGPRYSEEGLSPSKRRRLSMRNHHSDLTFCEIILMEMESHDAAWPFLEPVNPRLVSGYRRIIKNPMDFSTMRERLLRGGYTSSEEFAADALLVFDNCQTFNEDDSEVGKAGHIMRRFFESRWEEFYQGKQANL
T5 sequence (O95619 15-158 limits assumed): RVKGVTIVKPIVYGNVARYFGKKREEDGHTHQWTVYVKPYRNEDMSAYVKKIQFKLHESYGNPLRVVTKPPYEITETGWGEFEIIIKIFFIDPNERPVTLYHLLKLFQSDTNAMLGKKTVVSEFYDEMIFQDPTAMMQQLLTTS

| Structure (SMILES) | Thermal stabilisation, ATAD2A ([1]; 10 µM compound concentration) | Thermal stabilisation, BAZ2A ([2]; 10 µM compound concentration) | Thermal stabilisation, PB1(1) ([3]; 10 µM compound concentration) | Thermal stabilisation, TIF1a ([4]; 10 µM compound concentration) | Thermal stabilisation, ATAD2A ([1]; 50 μM compound) | Thermal stabilisation, BAZ2A ([2]; 50 μM compound) | Thermal stabilisation, PB1(1) ([3]; 50 μM compound) | Thermal stabilisation, TIF1a ([4]; 50 μM compound) | IC50 [5] | inhibition of BRD4 (I) ([6]; 10 μM using AS) | IC50 ([6]; AlphaScreen selectivity screen) | inhibition of TAF1 ([7]; 10 μM using AS) | IC50 ([7]; AlphaScreen selectivity screen) |
| --- | --- | --- | --- | --- | --- | --- | --- | --- | --- | --- | --- | --- | --- |
| CCOC(=O)Nc1cc(-c2ccc(C)c(NS(C)(=O)=O)c2)nn2c(C)nnc12 [Bromosporine, reference compound] | 0.67 | 1.125 | 0.98 | 0.16 |  |  |  |  |  |  |  |  |  |
| COC(=O)c1ccc(C(=O)Nc2ccc3[nH]c(CN4CCCCC4)nc3c2)cc1 [Compound 1] |  |  |  |  | 0.54 | 0.81 | -1.095 | -1.13 |  |  |  |  |  |
| C[C@H]1CCCN1Cc1nc2cc(NC(=O)c3ccc4c(cnn4C)c3)ccc2[nH]1 [Compound 92] |  |  |  |  | 0.56 | 0.25 | -1.745 | -1.04 | > 10 µM | no inhibition | > 10 µM | no inhibition | > 10 µM |
